Experimental data from patent EP0199524B1, “Platinum tramine antitumor agents” (ENGELHARD CORPORATION, priority 1985, dated 1986).
Where “and” joins values, the source holds several entries; their conditions need not be identical. Equal values may be shown once.

Columns and labels:
S180 ascites = experiment: Screening for anti-tumor activity against S180 ascites (S180a) in mice; format: in vivo, female CFW Swiss mice; settings: for 30-Day Survivors / %ILS: medium H2O; for 30-Day Survivors: survivors/mice in set; for %ILS: injected day 1, S180a in mice, upper limit 100%
Protocol: The compounds were evaluated for anti-tumor activity against S180 ascites in female CFW Swiss mice by the following procedure: CFW mice, averaging 20g, are immediately inspected and placed in newly prepared cages. On day zero the mice are inoculated with 0.2 ml. of a freshly prepared saline suspension (0.15 M NaCl) containing 1 x 10⁷ tumor cells/ml, or a total of 2 x 10⁶ cells. This inoculum is freshly prepared using "transfer" mice which have been injected with tumor cells the previous week. This inoculum is the end-product of a series of steps which involves (1) the removal of the cells from the peritoneal cavity of the sacrificed transfer mouse, (2) alternate centrifugation-washing (2-3 times with cold saline) to remove occasional blood and other undesirable components, and finally (3) dilution (1:3) of the packed cell volume with saline (the final centrifugation being carried out at 1,000 rpm for 2 min.). A cell count is made on a 2,000-fold dilution of this 1:3 suspension by means of a Coulter Counter. A final dilution to 1 x 10⁷ cells/ml. is made based on the averaged count. On day 1, solutions of the test compounds are prepared and the mice injected, with each mouse of a set of six being injected with the same test compound at the same dose level.
ILS values above 50% represent significant activity; those above 75% represent excellent activity.

[1] = literature statement on charged platinum species; cited from earlier work
[2] = 8 mg/kg in saline, positive control run with each experiment, S180a in mice

SMILES	30-Day Survivors (S180 ascites; Dose 10 mg/kg, S180a in mice)	30-Day Survivors (S180 ascites; Dose 20 mg/kg, S180a in mice)	30-Day Survivors (S180 ascites; Dose 40 mg/kg, S180a in mice)	30-Day Survivors (S180 ascites; Dose 80 mg/kg, S180a in mice)	30-Day Survivors (S180 ascites; Dose 160 mg/kg, S180a in mice)	30-Day Survivors (S180 ascites; Dose 320 mg/kg, S180a in mice)	%ILS (S180 ascites; Dose 320 mg/kg) [%]	%ILS (S180 ascites; Dose 10 mg/kg) [%]	%ILS (S180 ascites; Dose 20 mg/kg) [%]	%ILS (S180 ascites; Dose 160 mg/kg) [%]	%ILS (S180 ascites; Dose 40 mg/kg) [%]	%ILS (S180 ascites; Dose 80 mg/kg) [%]	further results
N.N.[Cl-].[Cl][Pt+].c1ccncc1 [Example 1, Cis-Chlorodiamminepyridineplatinum(II) Chloride]	0/6	1/6 and 0/6	4/6 and 6/6	0/6 and 4/6	0/6	0/7	-94						30-Day Survivors (S180 ascites; Dose 5 mg/kg, S180a in mice): 0/6; %ILS (S180 ascites; Dose 5 mg/kg, 5 mg/kg): 19%; %ILS (S180 ascites; Dose 20 mg/kg, 20 mg/kg): 73% and 70%; %ILS (S180 ascites; Dose 40 mg/kg, 40 mg/kg): 91% and 100%; %ILS (S180 ascites; Dose 40 mg/kg, listed as Cis-[Pt(NH₃)₂(py)Cl]Cl, 40 mg/kg): 100%
N.N.Oc1ccccn1.[Cl-].[Cl][Pt+] [Example 2, Cis-Chlorodiammine-2-hydroxypyridineplatinum(II) Chloride]	0/6	0/6	4/6 and 2/6	4/6 and 2/6	3/6	0/6	-74	15	28	64			30-Day Survivors (S180 ascites; Dose 5 mg/kg, S180a in mice): 0/6; %ILS (S180 ascites; Dose 5 mg/kg): 15%; %ILS (S180 ascites; Dose 40 mg/kg, 40 mg/kg): 95% and 78%; %ILS (S180 ascites; Dose 80 mg/kg, 80 mg/kg): 91% and 80%; 30-Day Survivors (S180 ascites; Dose 640 mg/kg, S180a in mice): 0/6; %ILS (S180 ascites; Dose 640 mg/kg): -77%; 30-Day Survivors (S180 ascites; Dose 1280 mg/kg, S180a in mice): 0/6; %ILS (S180 ascites; Dose 1280 mg/kg): -84%
Cc1cccc(O)[n+]1[Pt-2]([NH3+])([NH3+])[Cl].[Cl-] (stereo not drawn) [Example 3, Cis-Chlorodiammine-6-methyl-2-hydroxypyridineplatinum(II) Chloride]	0/6	0/6	0/6	0/6	5/6	3/6	93	-9	-6	93	12	15	
[Cl-].[NH3+][Pt-2]([NH3+])([Cl])[n+]1cccc(O)c1 (stereo not drawn) [Example 4, Cis-chlorodiammine-3-hydroxypyridineplatinum(II) Chloride]	0/6	0/6	0/6	1/6	1/6	0/6	-75	5	10	-8	54	69	
Cc1cc[n+]([Pt-2]([NH3+])([NH3+])[Cl])cc1.[Cl-] (stereo not drawn) [Example 5, Cis-chlorodiammine-4-methylpyridineplatinum(II)chloride]	0/6	1/6	2/6	1/6	0/6	0/6	-91	5	27	-77	83	66	
N.N.Nc1cc[nH]c(=O)n1.[Cl-].[Cl][Pt+] [Example 6, Cis-chlorodiamminecytosineplatinum(II) chloride]		0/6	1/6	4/6	3/6	2/6	-16		23	68	58	92	30-Day Survivors (S180 ascites; Dose 640 mg/kg, S180a in mice): 0/6; %ILS (S180 ascites; Dose 640 mg/kg): -74%
Cc1ccc(O)c[n+]1[Pt-2]([NH3+])([NH3+])[Cl].[Cl-] (stereo not drawn) [Example 7, Cis-chlorodiammine-6-methyl-3-hydroxypyridineplatinum(II) chloride]		0/6	2/6	4/6	3/6	0/6	-49		30	82	70	93	30-Day Survivors (S180 ascites; Dose 640 mg/kg, S180a in mice): 0/6; %ILS (S180 ascites; Dose 640 mg/kg): -75%
[Cl-].[NH3+][Pt-2]([NH3+])([Cl])[n+]1ccc(Cl)cc1 (stereo not drawn) [Example 8, Cis-chlorodiammine-4-chloropyridineplatinum(II) chloride]	0/6	2/6	4/6	4/6	0/6	0/6	-94	22	68	-77	77	36	
N.N.[Cl-].[Cl][Pt+].c1ccncc1 [Example 18, Trans-Chlorodiamminepyridineplatinum(II) Chloride]	0/6	0/6	0/6	0/6	0/6								30-Day Survivors (S180 ascites; Dose 5 mg/kg, S180a in mice): 0/6; %ILS (S180 ascites; Dose 5 mg/kg, 5 mg/kg): 2%; %ILS (S180 ascites; Dose 10 mg/kg, 10 mg/kg): 7%; %ILS (S180 ascites; Dose 20 mg/kg, 20 mg/kg): 6%; %ILS (S180 ascites; Dose 40 mg/kg, 40 mg/kg): 15%; %ILS (S180 ascites; Dose 80 mg/kg, 80 mg/kg): 26%; %ILS (S180 ascites; Dose 160 mg/kg, 160 mg/kg): -70%
[Cl-].[Cl][Pt-2]1([n+]2ccccc2)[NH2+]C2CCCCC2[NH2+]1 (centres unmarked) [Example 19, Chloro-1,2-diaminocyclohexanepyridineplatinum(II) chloride]	0/6	0/6	0/6	0/6	0/6	0/6	-94	6	8	25	6	15	
[Cl][Pt-2]([Cl])([Cl])[Cl].[K+].[K+] [K₂PtCl₄]													antitumor activity [1]: completely inactive
N.N.N.N.[Cl][Pt][Cl] [[Pt(NH₃)₄]Cl₂]													antitumor activity [1]: completely inactive
N.N.[Cl][Pt][Cl] [cis-[Pt(NH3)2Cl2], cis-diamminedichloroplatinum(II), reference compound]													Positive Control 30-Day Survivors (S180 ascites; [2]): 2/6 and 4/6 and 1/6 and 3/6 and 2/7; Positive Control %ILS (S180 ascites; [2]): 79% and 66% and 80% and 94% and 73% and 72% and 98%; optimum activity (dose) (S180 ascites; under identical screening): 9 to 10 mg/kg
